# Results from ChEMBL document CHEMBL1201862, “PubChem BioAssay data set” (2004).
#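 96-well plates; 48 h exposure; 5 concentrations. Endpoints by linear interpolation between flanking doses. Not reached: highest tested concentration assigned. Here, GI50 denotes the concentration required for 50% inhibition of growth.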 Activity calls are given as the source filed them. Rule as the data show it: active = GI50 up to about 1.1 µM and inactive = higher.
# What was measured:
# Assay in all cases: NCI anticancer screen, dose series, 48 h
# SNB-19 = tested on: SNB-19
# HCC 2998 = tested on: HCC 2998
# SF-268 = tested on: SF-268
# MDA-MB-435 = tested on: MDA-MB-435
# PC-3 = tested on: PC-3
# K562 = tested on: K562
# SN12C = tested on: SN12C
# UACC-62 = tested on: UACC-62
# SNB-75 = tested on: SNB-75
# A549 = tested on: A549
# NCI-H23 = tested on: NCI-H23
# MDA-N = tested on: MDA-N
# NCI-H226 = tested on: NCI-H226
# HL-60 = tested on: HL-60
# MDA-MB-231 = tested on: MDA-MB-231
# COLO 205 = tested on: COLO 205
# MOLT-4 = tested on: MOLT-4
# U-251 = tested on: U-251
# SK-MEL-5 = tested on: SK-MEL-5
SMILES,GI50 (SNB-19),GI50 (HCC 2998),GI50 (SF-268),GI50 (MDA-MB-435),GI50 (PC-3),GI50 (K562),GI50 (SN12C),GI50 (UACC-62),GI50 (SNB-75),GI50 (A549),GI50 (NCI-H23),GI50 (MDA-N),GI50 (NCI-H226),GI50 (HL-60),GI50 (MDA-MB-231),GI50 (COLO 205),GI50 (MOLT-4),GI50 (U-251),GI50 (SK-MEL-5)
O=C(/C=C/c1cccs1)c1cccc(C(=O)/C=C/c2cccs2)n1,19.3 µM (inactive),> 100 µM (inactive),21.5 µM (inactive),52.7 µM (inactive),36.3 µM (inactive),3.93 µM (inactive),19.9 µM (inactive),> 31.2 µM (inactive),65.9 µM (inactive),> 84.3 µM (inactive),31 µM (inactive),28.2 µM (inactive),> 100 µM (inactive),7.41 µM (inactive),63.2 µM (inactive),> 100 µM (inactive),2.29 µM (inactive),9.1 µM (inactive),> 100 µM (inactive)
COC(=O)c1ccc(C)cc1C1CN=NC12Cc1cccc(C)c1C2=O (stereo unspecified),> 100 µM (inactive),42.2 µM (inactive),57.1 µM (inactive),18.9 µM (inactive),22.5 µM (inactive),26.7 µM (inactive),52.7 µM (inactive),21 µM (inactive),34.2 µM (inactive),41.1 µM (inactive),64.9 µM (inactive),26.2 µM (inactive),25.1 µM (inactive),20.2 µM (inactive),> 100 µM (inactive),30.5 µM (inactive),19.6 µM (inactive),79.1 µM (inactive),22.2 µM (inactive)
O=C(NNC(=S)Nc1ccccc1)C12CC3CC(CC(C3)C1)C2,25.4 µM (inactive),30.9 µM (inactive),17.1 µM (inactive),23.7 µM (inactive),18.2 µM (inactive),12.7 µM (inactive),24.5 µM (inactive),13.7 µM (inactive),29.4 µM (inactive),19.9 µM (inactive),31.8 µM (inactive),26.8 µM (inactive),26.7 µM (inactive),7.01 µM (inactive),40 µM (inactive),20.7 µM (inactive),10 µM (inactive),12.9 µM (inactive),8.53 µM (inactive)
CSc1c(C(=O)Nc2ccc(Cl)cc2)c(N)n(N)c(=O)c1C#N,> 100 µM (inactive),54.1 µM (inactive),> 100 µM (inactive),> 100 µM (inactive),79.8 µM (inactive),46.6 µM (inactive),> 100 µM (inactive),24.5 µM (inactive),> 100 µM (inactive),> 100 µM (inactive),61.5 µM (inactive),> 100 µM (inactive),89.7 µM (inactive),78.7 µM (inactive),> 100 µM (inactive),> 100 µM (inactive),76.9 µM (inactive),> 100 µM (inactive),> 100 µM (inactive)
CCC(CS(=O)(=O)O)[N+](=O)[O-] (stereo unspecified),> 100 µM (inactive),> 100 µM (inactive),> 100 µM (inactive),> 100 µM (inactive),> 100 µM (inactive),> 100 µM (inactive),> 100 µM (inactive),> 100 µM (inactive),> 100 µM (inactive),> 100 µM (inactive),> 100 µM (inactive),> 100 µM (inactive),> 100 µM (inactive),> 100 µM (inactive),> 100 µM (inactive),> 100 µM (inactive),> 100 µM (inactive),> 100 µM (inactive),> 100 µM (inactive)
CCC(=O)O[C@H]1CC[C@H]2[C@@H]3CCC4=C/C(=N/OC(=O)c5cccc6cc7ccccc7nc56)CC[C@]4(C)[C@H]3CC[C@]12C,70.1 µM (inactive),> 100 µM (inactive),> 100 µM (inactive),38.8 µM (inactive),29 µM (inactive),> 100 µM (inactive),> 100 µM (inactive),27.8 µM (inactive),83.8 µM (inactive),71.1 µM (inactive),52.8 µM (inactive),51.5 µM (inactive),> 100 µM (inactive),44.3 µM (inactive),> 100 µM (inactive),41 µM (inactive),> 100 µM (inactive),51.9 µM (inactive),15.2 µM (inactive)
CSc1nc(SC)c2c(C)cn(C3OC(C)C(O)C(O)C3O)c2n1 (stereo unspecified),57 µM (inactive),57.5 µM (inactive),95.7 µM (inactive),40 µM (inactive),43.9 µM (inactive),–,> 100 µM (inactive),76.6 µM (inactive),52.6 µM (inactive),74.5 µM (inactive),94 µM (inactive),67.6 µM (inactive),66.7 µM (inactive),46.2 µM (inactive),52.7 µM (inactive),86.7 µM (inactive),39.3 µM (inactive),62.7 µM (inactive),63.4 µM (inactive)
CCCCCC[C@H]([C@H](C)O)n1cnc2c(N)ncnc21,> 100 µM (inactive),> 100 µM (inactive),> 100 µM (inactive),> 100 µM (inactive),> 100 µM (inactive),> 100 µM (inactive),> 100 µM (inactive),> 100 µM (inactive),62.7 µM (inactive),> 100 µM (inactive),> 100 µM (inactive),> 100 µM (inactive),> 100 µM (inactive),50.9 µM (inactive),> 100 µM (inactive),> 100 µM (inactive),> 100 µM (inactive),> 100 µM (inactive),> 100 µM (inactive)
N#Cc1nc(-c2cc([N+](=O)[O-])cc([N+](=O)[O-])c2)oc1N,> 10 µM (inactive),> 10 µM (inactive),> 10 µM (inactive),> 10 µM (inactive),> 10 µM (inactive),> 10 µM (inactive),> 10 µM (inactive),> 10 µM (inactive),> 10 µM (inactive),> 10 µM (inactive),> 10 µM (inactive),> 10 µM (inactive),> 10 µM (inactive),> 10 µM (inactive),> 10 µM (inactive),> 10 µM (inactive),> 10 µM (inactive),–,> 10 µM (inactive)
CCOP(=O)(OCC)/C(C#N)=C/c1ncc[nH]1,> 100 µM (inactive),> 100 µM (inactive),> 100 µM (inactive),> 100 µM (inactive),> 100 µM (inactive),> 100 µM (inactive),> 100 µM (inactive),> 100 µM (inactive),> 100 µM (inactive),> 100 µM (inactive),> 100 µM (inactive),> 100 µM (inactive),> 100 µM (inactive),> 100 µM (inactive),> 100 µM (inactive),> 100 µM (inactive),> 100 µM (inactive),> 100 µM (inactive),> 100 µM (inactive)
Cc1cc(C)c(O)c(CN2CCN(C(C)C)CCN(C(C)C)CC2)c1,63.1 µM (inactive),18.8 µM (inactive),54.3 µM (inactive),18 µM (inactive),22.3 µM (inactive),17.9 µM (inactive),27.5 µM (inactive),27 µM (inactive),33.7 µM (inactive),32.3 µM (inactive),–,20.6 µM (inactive),12 µM (inactive),11.7 µM (inactive),48.3 µM (inactive),18.6 µM (inactive),11.7 µM (inactive),37 µM (inactive),> 10 µM (inactive)
CC1(C)CCC[C@@]2(C)C1CC[C@@]1(CO)O[C@H](C3=CC(=O)OC3O)C[C@H]12 (stereo partly specified),16.2 µM (inactive),17.4 µM (inactive),19.7 µM (inactive),11.5 µM (inactive),13.8 µM (inactive),4.76 µM (inactive),13.3 µM (inactive),3.89 µM (inactive),15.3 µM (inactive),30.5 µM (inactive),13.6 µM (inactive),12.6 µM (inactive),18.2 µM (inactive),1.66 µM (inactive),18.8 µM (inactive),11.1 µM (inactive),3.03 µM (inactive),15.1 µM (inactive),5.38 µM (inactive)
COc1cc(Br)c(CC2C3=C(CCN2C(=O)C2CCC2)CC2(CC3)OCCO2)cc1O (stereo unspecified),> 100 µM (inactive),28.8 µM (inactive),83.9 µM (inactive),23.6 µM (inactive),46.6 µM (inactive),31.6 µM (inactive),84.1 µM (inactive),53.8 µM (inactive),17.2 µM (inactive),57.9 µM (inactive),28.8 µM (inactive),34.4 µM (inactive),> 100 µM (inactive),46.7 µM (inactive),87.1 µM (inactive),18.2 µM (inactive),43.3 µM (inactive),> 100 µM (inactive),35.3 µM (inactive)
COc1ccc(-c2oc3cc(OC)c(OC)c(O)c3c(=O)c2OC)cc1,28.4 µM (inactive),> 100 µM (inactive),24.5 µM (inactive),> 100 µM (inactive),39.8 µM (inactive),> 100 µM (inactive),80.4 µM (inactive),21.4 µM (inactive),15.4 µM (inactive),> 100 µM (inactive),–,> 100 µM (inactive),48.9 µM (inactive),29.4 µM (inactive),17 µM (inactive),> 100 µM (inactive),> 100 µM (inactive),34 µM (inactive),> 100 µM (inactive)
NCCCNCCCCN1CC1,6.55 µM (inactive),7.06 µM (inactive),1.99 µM (inactive),3.6 µM (inactive),5.69 µM (inactive),2.49 µM (inactive),3.77 µM (inactive),3.99 µM (inactive),0.372 µM (active),9.57 µM (inactive),6.7 µM (inactive),3.63 µM (inactive),8.49 µM (inactive),0.601 µM (active),1.4 µM (inactive),1.02 µM (active),1.26 µM (inactive),2.84 µM (inactive),2.25 µM (inactive)
